Source: US20160074374A1, “CORRECTORS ACTING THROUGH MSD1 OF CFTR PROTEIN” (VERTEX PHARMACEUTICALS INCORPORATED, priority 2013, published 2016)
“Also recorded” adds a separate entry of the source.

Legend:
V232D-CFTR = V232D-CFTR (Homo sapiens, UniProt P13569, V232D); details: cited from earlier work
mutant CFTR = target: T1, mutant CFTR (Homo sapiens, UniProt P13569, E92K); assay: Ussing chamber forskolin-stimulated chloride transport in Fisher Rat Thyroid cells expressing CFTR mutants; type: cell-based; details: Corr4a 15 μM
T1 construct: expressed in transfected cells
T1 sequence (P13569 whole entry E92K): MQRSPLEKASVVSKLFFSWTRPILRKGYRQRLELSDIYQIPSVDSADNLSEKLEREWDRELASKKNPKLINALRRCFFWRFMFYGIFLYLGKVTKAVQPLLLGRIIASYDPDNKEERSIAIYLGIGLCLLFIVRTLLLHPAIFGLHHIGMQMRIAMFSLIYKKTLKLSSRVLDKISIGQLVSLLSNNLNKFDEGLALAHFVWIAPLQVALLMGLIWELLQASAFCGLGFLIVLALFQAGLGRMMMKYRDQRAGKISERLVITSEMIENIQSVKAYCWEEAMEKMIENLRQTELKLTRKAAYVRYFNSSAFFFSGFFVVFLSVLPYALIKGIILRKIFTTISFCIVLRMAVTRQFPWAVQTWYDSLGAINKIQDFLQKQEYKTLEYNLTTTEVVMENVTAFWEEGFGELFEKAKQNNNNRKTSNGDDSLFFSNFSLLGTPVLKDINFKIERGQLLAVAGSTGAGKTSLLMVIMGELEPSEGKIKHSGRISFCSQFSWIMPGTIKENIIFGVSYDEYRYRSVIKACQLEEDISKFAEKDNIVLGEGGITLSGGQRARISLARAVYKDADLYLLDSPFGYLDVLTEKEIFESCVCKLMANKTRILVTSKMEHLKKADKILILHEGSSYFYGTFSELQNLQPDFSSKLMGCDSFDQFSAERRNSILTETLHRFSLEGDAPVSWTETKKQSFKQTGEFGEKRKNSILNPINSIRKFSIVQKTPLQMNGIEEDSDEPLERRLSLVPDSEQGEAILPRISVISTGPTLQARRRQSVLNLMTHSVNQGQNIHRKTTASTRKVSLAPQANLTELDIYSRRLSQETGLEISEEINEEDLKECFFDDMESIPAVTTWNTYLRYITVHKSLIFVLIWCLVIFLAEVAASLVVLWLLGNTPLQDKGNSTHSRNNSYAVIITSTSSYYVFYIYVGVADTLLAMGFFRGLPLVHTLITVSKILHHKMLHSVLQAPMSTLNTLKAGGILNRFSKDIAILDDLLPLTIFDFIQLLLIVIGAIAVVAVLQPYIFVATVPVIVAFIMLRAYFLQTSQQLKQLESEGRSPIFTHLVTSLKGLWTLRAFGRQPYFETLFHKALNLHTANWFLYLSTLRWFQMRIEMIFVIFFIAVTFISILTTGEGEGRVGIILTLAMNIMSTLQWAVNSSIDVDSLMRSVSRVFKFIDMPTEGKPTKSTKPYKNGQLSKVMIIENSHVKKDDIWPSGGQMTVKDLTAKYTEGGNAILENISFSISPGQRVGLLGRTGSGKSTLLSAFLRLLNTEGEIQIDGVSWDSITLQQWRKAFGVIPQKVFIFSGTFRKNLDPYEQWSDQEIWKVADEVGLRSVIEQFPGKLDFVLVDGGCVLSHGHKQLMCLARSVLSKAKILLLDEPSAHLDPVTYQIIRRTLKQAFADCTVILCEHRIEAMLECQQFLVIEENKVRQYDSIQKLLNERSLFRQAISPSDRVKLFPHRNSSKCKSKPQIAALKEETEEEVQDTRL
Description: Ussing chamber techniques with Fisher Rat Thyroid cells that are stably transfected with the indicated form of CFTR are used to record the transepithelial current (IT) resulting from CFTR-mediated chloride transport (Van Goor, et al., 2009, PNAS, 106: 18825-30). Standard conditions for Ussing chamber electrophysiological with different forms of CFTR measured forskolin (10 μM)-stimulated chloride transport that peaked at 205.5 μA/cm2 for normal CFTR.

ΔF508-CFTR = ΔF508-CFTR (Homo sapiens, UniProt P13569, DEL508-508); design: primary cultures of human bronchial epithelial cells isolated from subjects with CF; host or cells: primary human bronchial epithelial cells (Van Goor 2011); CF patients in a 28-day study (Clancy 2012); details: bronchial epithelial cells from CF subjects; cited from earlier work
ΔF508-CFTR, sequence (P13569 with tags, fused parts or gaps DEL508-508): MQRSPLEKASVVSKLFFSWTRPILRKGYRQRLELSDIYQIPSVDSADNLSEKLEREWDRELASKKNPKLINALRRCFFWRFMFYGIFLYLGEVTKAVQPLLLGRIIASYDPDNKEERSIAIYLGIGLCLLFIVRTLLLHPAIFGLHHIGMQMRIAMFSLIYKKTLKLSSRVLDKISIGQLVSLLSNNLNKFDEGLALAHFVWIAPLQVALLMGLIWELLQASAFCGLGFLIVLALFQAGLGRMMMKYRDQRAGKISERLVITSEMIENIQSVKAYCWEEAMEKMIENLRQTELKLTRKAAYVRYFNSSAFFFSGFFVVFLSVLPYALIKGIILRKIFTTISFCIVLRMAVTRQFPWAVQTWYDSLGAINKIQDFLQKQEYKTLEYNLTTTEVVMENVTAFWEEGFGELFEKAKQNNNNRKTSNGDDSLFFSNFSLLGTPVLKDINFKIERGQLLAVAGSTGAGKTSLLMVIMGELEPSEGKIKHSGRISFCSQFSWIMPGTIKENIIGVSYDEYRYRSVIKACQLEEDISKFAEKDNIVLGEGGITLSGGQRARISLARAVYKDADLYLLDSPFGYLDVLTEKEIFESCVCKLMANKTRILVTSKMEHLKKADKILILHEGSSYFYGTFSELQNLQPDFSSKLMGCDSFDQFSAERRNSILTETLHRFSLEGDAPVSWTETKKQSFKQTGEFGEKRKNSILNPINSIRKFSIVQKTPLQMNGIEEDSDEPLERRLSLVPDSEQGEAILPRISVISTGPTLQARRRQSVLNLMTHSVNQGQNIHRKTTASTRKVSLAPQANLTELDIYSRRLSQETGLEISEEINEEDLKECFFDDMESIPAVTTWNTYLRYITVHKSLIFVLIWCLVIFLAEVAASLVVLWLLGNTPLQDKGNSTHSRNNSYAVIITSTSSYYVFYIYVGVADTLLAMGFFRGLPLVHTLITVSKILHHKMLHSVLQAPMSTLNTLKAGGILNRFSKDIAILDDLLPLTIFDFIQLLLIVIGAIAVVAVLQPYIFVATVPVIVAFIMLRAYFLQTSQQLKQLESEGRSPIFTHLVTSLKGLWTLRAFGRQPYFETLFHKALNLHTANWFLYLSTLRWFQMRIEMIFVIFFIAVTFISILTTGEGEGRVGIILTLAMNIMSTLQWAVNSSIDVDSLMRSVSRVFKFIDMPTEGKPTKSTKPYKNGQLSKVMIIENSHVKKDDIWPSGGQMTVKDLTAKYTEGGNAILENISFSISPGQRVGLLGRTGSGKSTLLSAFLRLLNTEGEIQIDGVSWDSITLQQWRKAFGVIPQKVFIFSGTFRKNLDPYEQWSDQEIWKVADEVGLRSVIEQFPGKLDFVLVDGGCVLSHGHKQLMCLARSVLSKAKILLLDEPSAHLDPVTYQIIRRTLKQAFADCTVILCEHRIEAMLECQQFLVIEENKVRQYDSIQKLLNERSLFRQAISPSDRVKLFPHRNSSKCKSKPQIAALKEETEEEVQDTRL

[1] = target: T2, N-terminal CFTR fragments (Homo sapiens, UniProt P13569); assay: Steady-state accumulation of CFTR fragments, western blot, HEK293 cells; type: cell-based; details: bortezomib 10 μM
T2 construct: Indicated CFTR fragments were generated via introduction of a stop codon after the specified residue; expressed in transfected cells; host or cells: HEK293, transient, pcDNA3.1(+)-CFTR derivatives
Description: Steady-state levels of CFTR and its mutants are determined by western blot analysis. HEK293 cells are transiently transfected with the indicated plasmids (Grove, et al., 2011, Mol Biol Cell, 22: 301-14). The transfected cells are allowed to recover for approximately 18 hrs before addition of DMEM and then supplemented with lumacaftor or DMSO (control). The cells are incubated with the correctors for 24 hrs before isolating the cells for western blot analysis. The harvested cells are diluted with 2×SDS sample buffer (100 mM Tris-HCl (pH 6.8)/4% SDS/0.05% Bromophenol Blue/20% glycerol), sonicated, and heated at 37° C. prior to resolving the proteins on SDS-PAGE gels. The proteins are transferred to nitrocellulose membranes and the membranes are probed with the designated antibodies. Tubulin is used to indicate loading controls.
A set of CFTR fragments with domain boundaries that permitted them to accumulate in unstable or stable states are expressed in HEK293 cells, and the effect of 5 μM lumacaftor on the accumulation of different fragments is determined. As a point of reference, the impact of the proteasome inhibitor bortezomib on CFTR fragment accumulation is also measured.
Cells are treated for 4 hours with bortezomib or 18 hours at 37° C. with lumacaftor. The amount of CFTR fragment accumulation is determined by immunoblot.
To identify regions of CFTR required for lumacaftor activity, different length CFTR fragments were expressed in HEK-293 cells and their steady-state accumulation and half-life were quantified in biochemical assays (FIGS. 1A and B; FIG. 2). Since CFTR folding initiates cotranslationally and channel assembly is completed post-translationally (Higgins, 1992, Annual Review of Cell Biology, 8:67-113), CFTR fragments which may resemble folding intermediates have been used to study CFTR biogenesis. The underlying rationale is that differences in accumulation or half-life between different length CFTR fragments are believed to reflect differences in the stability of the protein conformation and resistance to endoplasmic reticulum associated degradation (ERAD). […] Differences in accumulation and halflife of CFTR fragments have been used successfully to identify Hsp70- and calnexin-dependent steps in CFTR folding and degradation pathways (Farinha and Amaral, 2005, Mol Cell Biol, 25:5242-52; Lukacs and Verkman, […], EMBO Journal, 13:6076-86; Meacham et al., 1999, EMBO Journal, 18:1492-1505; Okiyoneda et al., 2004, Mol Biol Cell, 15:563-574), to identify defective interactions between MSD1, NBD1 and MSD2 as an underlying cause of premature degradation of ΔF508-CFTR (Cui et al., 2007, J Mol Biol, 365:981-994; Du and Lukacs, 2009, Molecular Biology of the Cell, 20:1903-1915; Younger et al., 2006, Cell, 126:571-582), and to identify MSD2 as the site of action of the CFTR corrector, Corr-4a.

[2] = compared to CFTR^430 and CFTR^653

V232D-CFTR, sequence (P13569 whole entry V232D): as the sequence (P13569 whole entry E92K) above, with K92E, V232D counted along it

| restoration of E92K-CFTR function (mutant CFTR) | increase in accumulation of CFTR^370 ([1]; 4 hours) [fold] | increase in accumulation of CFTR^530 ([1]; 4 hours) [fold] | sensitivity of CFTR^430 accumulation to proteasome inhibition ([1]; 4 hours) | sensitivity of CFTR^653 accumulation to proteasome inhibition ([1]; 4 hours) | effect of proteasome inhibition on CFTR^530 [1, 2] | SMILES | V232D-CFTR biogenesis and function (V232D-CFTR) | ΔF508-CFTR function (ΔF508-CFTR) | effect of proteasome inhibition on CFTR^370 [1, 2] |
| --- | --- | --- | --- | --- | --- | --- | --- | --- | --- |
| could not restore | – | – | – | – | – | COc1ccc(Cl)cc1Nc1nc(-c2sc(NC(=O)c3ccccc3)nc2C)cs1 [Corr-4a] | to normal levels | partially restored | – |
| – | 10 | 10 | relatively insensitive | relatively insensitive | more susceptible | CC(C)C[C@H](NC(=O)[C@H](Cc1ccccc1)NC(=O)c1cnccn1)B(O)O [bortezomib] | – | – | more susceptible; also recorded: able to increase the stability |
